Assay type in all cases: biochemical
For one experiment, the target named is Aβ1–42 (amyloid-β 1-42) (Homo sapiens, UniProt P05067). The experiment can be described thus: fluorescent-probe fibril aggregation inhibition kit assay.
For experiment [1], the target named is T1, MAO-B (monoamine oxidase-B) (Homo sapiens, UniProt P27338).
T1 sequence (P27338 2-520): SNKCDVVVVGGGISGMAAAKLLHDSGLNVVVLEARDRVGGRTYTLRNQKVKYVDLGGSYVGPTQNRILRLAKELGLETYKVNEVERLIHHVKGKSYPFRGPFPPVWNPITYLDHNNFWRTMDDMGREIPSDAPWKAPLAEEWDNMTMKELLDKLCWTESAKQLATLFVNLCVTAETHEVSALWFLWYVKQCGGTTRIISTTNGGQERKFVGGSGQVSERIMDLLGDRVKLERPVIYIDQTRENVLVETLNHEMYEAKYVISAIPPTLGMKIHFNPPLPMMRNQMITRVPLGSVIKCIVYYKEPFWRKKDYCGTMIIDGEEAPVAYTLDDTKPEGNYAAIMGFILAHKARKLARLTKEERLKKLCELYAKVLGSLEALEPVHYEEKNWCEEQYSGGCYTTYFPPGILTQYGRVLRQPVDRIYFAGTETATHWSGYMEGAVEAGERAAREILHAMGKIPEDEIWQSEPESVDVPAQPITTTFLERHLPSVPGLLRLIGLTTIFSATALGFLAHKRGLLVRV
Description: fluorometric OxiRed-probe kit inhibition assay.

For the next experiment, the target named is BACE1 (β-secretase) (Homo sapiens, UniProt P56817). Description: fluorescence kit substrate-cleavage inhibition assay.
Chain of BACE1 (β-secretase) (P56817 46-457): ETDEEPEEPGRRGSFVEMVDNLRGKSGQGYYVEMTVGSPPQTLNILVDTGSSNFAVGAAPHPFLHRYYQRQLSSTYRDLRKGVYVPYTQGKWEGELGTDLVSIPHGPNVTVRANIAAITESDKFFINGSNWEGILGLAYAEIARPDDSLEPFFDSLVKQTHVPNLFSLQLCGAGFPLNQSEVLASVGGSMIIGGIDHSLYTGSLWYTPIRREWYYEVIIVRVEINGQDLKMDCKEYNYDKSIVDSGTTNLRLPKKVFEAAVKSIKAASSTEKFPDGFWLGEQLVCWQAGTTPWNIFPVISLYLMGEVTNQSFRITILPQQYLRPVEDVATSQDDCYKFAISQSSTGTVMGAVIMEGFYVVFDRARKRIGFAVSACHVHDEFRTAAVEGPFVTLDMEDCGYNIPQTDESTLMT

Each structure is given as a SMILES string.

Chain of Aβ1–42 (amyloid-β 1-42) (P05067 672-713): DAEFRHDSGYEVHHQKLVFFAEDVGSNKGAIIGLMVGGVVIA

Turning to `COc1cc(/C=C/C(=O)NCCc2ccc(O)c(OC)c2)ccc1O` [compound 1, N-trans-feruloyl-3-methoxytyramine], the figures for the 50% inhibitory concentration (IC50) (at Aβ1–42 (amyloid-β 1-42); in experiment [1]; against BACE1 (β-secretase)) were 0.874 µM, 2.07 µM and 15.7 µM, respectively.
On to `COc1cc(/C=C/C(=O)NCCc2ccc(O)cc2)ccc1O` [compound 2, N-trans-feruloyltyramine], for which the results for the IC50 (against Aβ1–42 (amyloid-β 1-42); in experiment [1]; at BACE1 (β-secretase)) were 3.83 µM, 7.15 µM and 37 µM, respectively.
As to `COc1cc(/C=C/C(=O)NC[C@@H](O)c2ccc(O)cc2)ccc1O` [compound 4, S-(−)-N-trans-feruloyloctopamine], the IC50 on Aβ1–42 (amyloid-β 1-42) is 39.8 µM; in experiment [1], 18 µM; against BACE1 (β-secretase), 110 µM.
Regarding `O=C(/C=C/c1ccc(O)c(O)c1)NCCc1ccc(O)cc1` [compound 6, N-trans-caffeoyltyramine], the IC50 against Aβ1–42 (amyloid-β 1-42) was 20.2 µM; in experiment [1] it was 8.75 µM; at BACE1 (β-secretase) it was 34.1 µM.
In the case of `COc1cc(/C=C/C(=O)NC[C@@H](OC)c2ccc(O)cc2)ccc1O` [compound 7, S-(−)-3-(4-hydroxy-3-methoxyphenyl)-N-[2-(4-hydroxyphenyl)-methoxyethyl]acrylamide], the IC50 is 7.63 µM at Aβ1–42 (amyloid-β 1-42), 4.43 µM in experiment [1] and 16.4 µM on BACE1 (β-secretase).

The term IC50 denotes the point on the concentration scale where inhibition reaches its midpoint.
